# US20090203901A1, “Process for preparing pyrazole functionalized benzodiazepinones” (Roche Colorado Corporation, priority 2008, published 2009)
# Columns and labels:
# [1] = tested on: vascular endothelial cell proliferation; conditions: endothelial versus tumor cell proliferation; cited from earlier work
# [2] = tested on: tumor growth and metastasis; conditions: cited from earlier work
Compound,melting point [°C],half-maximal inhibition of vascular endothelial cell proliferation at lower concentration than tumor cell proliferation [1] [logs],tumor growth and metastasis in vivo [2]
COc1cc(NC(=O)CBr)c(C(=O)c2ccccc2Cl)cc1F,177 to 178,–,–
COc1cc2c(cc1F)C(c1ccccc1Cl)=NCC(=O)N2,210 to 212.5,–,–
CO[C@@H]1[C@H](OC(=O)NC(=O)CCl)CC[C@]2(CO2)[C@H]1[C@@]1(C)O[C@@H]1CC=C(C)C [AGM-1470],–,4,inhibits tumor growth and metastasis in vivo
"COc1cc(F)c(C(=O)c2ccccc2Cl)cc1F [Example 1, 2′-Chloro-2,5-difluoro-4-methoxybenzophenone]",84 to 85,–,–
"COc1cc(NCc2ccccc2)c(C(=O)c2ccccc2Cl)cc1F [Example 2, 2-(Benzylamino)-2′-chloro-5-fluoro-4-methoxybenzophenone]",122 to 124,–,–
"COc1cc(N)c(C(=O)c2ccccc2Cl)cc1F [Example 3a, 2-Amino-2′-chloro-5-fluoro-4-methoxybenzophenone]",130.5 to 132.5,–,–
"C=CCNc1cc(OC)c(F)cc1C(=O)c1ccccc1Cl [Example 9, 2-(Allylamino)-2′chloro-5-fluoro-4-methoxybenzophenone]",125 to 127,–,–
